Molecular target: N1 (A/HongKong/156/97 (H5N1)) sialidase (Influenza A virus, UniProt Q9W7Y7)
Experiment: biochemical

N1 (A/HongKong/156/97 (H5N1)) sialidase, sequence (Q9W7Y7 whole entry, looked up): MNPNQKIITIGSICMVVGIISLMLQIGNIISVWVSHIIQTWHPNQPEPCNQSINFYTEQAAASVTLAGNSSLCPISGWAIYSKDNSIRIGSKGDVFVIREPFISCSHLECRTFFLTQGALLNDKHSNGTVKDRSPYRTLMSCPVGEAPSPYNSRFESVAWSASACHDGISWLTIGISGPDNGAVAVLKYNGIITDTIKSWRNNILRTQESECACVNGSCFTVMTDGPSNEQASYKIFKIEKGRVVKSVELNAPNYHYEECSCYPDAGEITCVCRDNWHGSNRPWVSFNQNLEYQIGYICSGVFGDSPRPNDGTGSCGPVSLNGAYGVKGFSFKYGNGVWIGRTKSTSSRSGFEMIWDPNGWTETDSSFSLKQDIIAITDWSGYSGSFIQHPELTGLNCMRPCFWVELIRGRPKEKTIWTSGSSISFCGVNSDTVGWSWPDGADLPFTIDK

## CC(=O)N[C@H]1[C@H]([C@H](O)[C@H](O)CO)OC(C(=O)O)=C[C@@H]1N=C(N)N [Compound 1, zanamivir]
  Ki: 0.17 nM

— paper PMC3060605 (Nature Communications, 2010)
